Assay results taken from patent publication US10399971B2, “Compound for treating or preventing hyperuricemia or gout” (JIANGSU ATOM BIOSCIENCE AND PHARMACEUTICAL CO., LTD., priority 2015, dated 2019).
Values joined by “and” are separate entries in the source; they are usually repeats but may differ in a detail not shown here. Identical values can stand only once. Like-named read-outs stand apart in the source and are kept apart here.

Key:
[1] = system: human normal liver cell line WRL-68; test: Cytotoxicity test on human normal liver cell line WRL-68 (Alamar Blue); format: cell-based; settings: WRL68, WRL-68 cells, 120 h incubation, cell viability, read-out: half inhibitory concentration (IC50) against WRL-68
Protocol: 2.1 The normal liver cell lines L-02 and WRL-68 were cultured with DMEM culture medium (containing 10% of fetal bovine serum, 100 U/mL of penicillin and 0.1 mg/mL of streptomycin) in an incubator under 5% CO2 at 37° C. until the cell density was about 90%, respectively.
2.3 Tested compounds and benzbromarone at different concentration gradients were prepared by using the DMEM culture medium and added into wells at 100 μL/well as compounds wells. The DMEM culture medium was added into wells at 100 μL/well without tested compound as negative control wells.
This 10× Alamar Blue solution was diluted into 1× Alamar Blue solution with phenol red free DMEM culture medium before use.
2.5 The cells were washed with PBS (0.1 M, pH=7.4) twice. The Alamar Blue solution was added into wells at 100 μL/well. 100 μL of Alamar Blue solution was added into wells without cells to serve as blank control wells. The 96-well plate was placed in an incubator under 5% CO2 at 37° C. for 3 h. Each concentration of compound was repeated three times during the test.
The fluorescence value of the cells containing compound is the F(test compound); the fluorescence value of the cells without compound as blank control is the F(blank control); the fluorescent value of the cells from negative control group is F(negative control). The average value and standard deviation of cell viability of three repeated concentrations was calculated by the following formula: […]
2.7 The half inhibitory concentration (IC50) of the compound for the cells L-02 and WRL-68 was obtained from the cell viability by Prism Graph software.

[2] = Pharmacokinetics following intravenous and oral administration in SD rats; format: in vivo
Excerpt: Dose formulation preparation for PO: Weight out the required amount of compound 74. Added approximately 70% of 0.5% CMC-Na with stirring, vortexing and sonication to mix well until visually well suspension. Then added the remaining vehicle to target total volume and vortex-mix.
Dose formulation preparation for IV: Weight out the required amount of compound 74. Added appropriate DMSO with sonication until dissolved, then added appropriate HP-β-Cyclodextrin water solution (20%, w/v) with vortexing to mix well.
Species: SD rats (SPF Level); sex: male; source: Sino-British SIPPR/BK Lab Animal Ltd., Shanghai.
The animals that dosed via orally were fasted overnight (10-14 hours) prior to oral administration. Food supply to the animals dosed orally were resumed 4 h post-dose.
Blood samples (approximately 250 μL/sample) were collected via jugular vein at Pre-dose and Post-dose (5 min, 15 min, 30 min, 1 h, 2 h, 4 h, 6 h, 8 h, and 24 h). Blood samples were placed into tubes containing sodium heparin and centrifuged conditions at 8000 rpm for 6 minutes at 2-8° C. to separate plasma from the samples. Plasma sample (50 μL) were transferred to tube, then 250 μL IS solution (200 ng/mL Tolbutamide) was added to it. After vortexing for 1 min and centrifuging for 5 min at 15000 rpm, 200 μL aliquots of supernatant were transferred to 96-well plate for LC-MS/MS analysis. The calibration curve of compound 74 was ranging from 1 to 1000 ng/mL. The LLOQ is 1 ng/mL for plasma.
A non-compartemental module of WinNonlin® Professional 5.2 was used to calculate parameters. The bioavailability was calculated as F %=(Dose(IV)×AUC(0-t)(PO))/(Dose(PO)×AUC(0-t)(IV))×100%.

[3] = IV 1 mg/kg, individual rats 201-203, 1 mg/kg
[4] = PO 10 mg/kg, individual rats 101-103, 10 mg/kg

With `CCc1nc2ccccn2c1C(=O)c1cc(Br)c(O)c(C#N)c1` [Compound 74, 3-bromo-5-(2-ethylimidazo[1,2-a]pyridine-3-carbonyl)-2-hydroxybenzonitrile hydrogen chloride] the IC50 [1] was > 100 µM, the “Clz” value ([2]; IV 1 mg/kg, Mean of 3 rats) was 1.803 mL/min/kg and the “AUC(0-t)” value [2, 3] was 9076.84 ng·h/mL and 8847.27 ng·h/mL. The “Clz” value [2, 3] was 1.8372 mL/min/kg and 1.761 mL/min/kg and 1.8108 mL/min/kg, the “Cmax” value [2, 3] was 6705.53 ng/mL and 6885.21 ng/mL and the “MRT(0-∞)” value [2, 3] was 5.60 h. For the same compound, the “Vz” value [2, 3] was 0.91779 L/kg and 0.93449 L/kg, the “t1/2” value [2, 3] was 6.00 h and the “F (%)” value ([2]; PO 10 mg/kg vs IV 1 mg/kg, from AUC(0-t), individual rats 101-103) was 108.04% and 100.28%. For the same compound, the “AUC(0-t)” value [2, 4] was 96188.83 ng·h/mL and 89284.20 ng·h/mL, the “Cmax” value [2, 4] was 6976.14 ng/mL and 8251.74 ng/mL and the “MRT(0-∞)” value [2, 4] was 6.80 h and 6.00 h. The “Tmax” value [2, 4] was 2.00 h and 6.00 h, the “t1/2” value [2, 4] was 3.00 h and 2.70 h and the half-life ([2]; male, SD, rat, plasma, iv, 1 mg/kg, IV 1 mg/kg, Mean of 3 rats) was 5.8 h. The AUC(0-t) ([2]; male, SD, rat, plasma, iv, 1 mg/kg, IV 1 mg/kg, Mean of 3 rats, read-out: AUC(0-t)) was 8900 ng·h/mL, the Cmax ([2]; male, SD, rat, plasma, iv, 1 mg/kg, IV 1 mg/kg, Mean of 3 rats, read-out: Cmax) was 6360 ng/mL and the MRT inf ([2]; male, SD, rat, plasma, iv, 1 mg/kg, IV 1 mg/kg, Mean of 3 rats, read-out: MRT(0-∞)) was 5.5 h. For the same compound, the Tmax ([2]; male, SD, rat, plasma, iv, 1 mg/kg, IV 1 mg/kg, Mean of 3 rats, read-out: Tmax) was 0.1 h, the Vd ([2]; male, SD, rat, plasma, iv, 1 mg/kg, IV 1 mg/kg, Mean of 3 rats, read-out: Vz) was 0.904 L/kg and the half-life ([2]; male, SD, rat, plasma, iv, 1 mg/kg, IV 1 mg/kg, individual rats 201-203) was 5.4 h. For the same compound, the AUC(0-t) ([2]; male, SD, rat, plasma, iv, 1 mg/kg, IV 1 mg/kg, individual rats 201-203, read-out: AUC(0-t)) was 8790 ng·h/mL, the Cmax ([2]; male, SD, rat, plasma, iv, 1 mg/kg, IV 1 mg/kg, individual rats 201-203, read-out: Cmax) was 5490 ng/mL and the MRT inf ([2]; male, SD, rat, plasma, iv, 1 mg/kg, IV 1 mg/kg, individual rats 201-203, read-out: MRT(0-∞)) was 5.4 h. It also gave a Tmax ([2]; male, SD, rat, plasma, iv, 1 mg/kg, IV 1 mg/kg, individual rats 201-203, read-out: Tmax) of 0.1 h, a Vd ([2]; male, SD, rat, plasma, iv, 1 mg/kg, IV 1 mg/kg, individual rats 201-203, read-out: Vz) of 0.859 L/kg and a bioavailability ([2]; male, SD, rat, plasma, po, 10 mg/kg, PO 10 mg/kg vs IV 1 mg/kg, from AUC(0-t), Mean of 3 rats) of 103%. The bioavailability ([2]; male, SD, rat, plasma, po, 10 mg/kg, PO 10 mg/kg vs IV 1 mg/kg, from AUC(0-t), individual rats 101-103) was 101%, the half-life ([2]; male, SD, rat, plasma, po, 10 mg/kg, PO 10 mg/kg, Mean of 3 rats) was 2.9 h and the AUC(0-t) ([2]; male, SD, rat, plasma, po, 10 mg/kg, PO 10 mg/kg, Mean of 3 rats, read-out: AUC(0-t)) was 91800 ng·h/mL. The Cmax ([2]; male, SD, rat, plasma, po, 10 mg/kg, PO 10 mg/kg, Mean of 3 rats, read-out: Cmax) was 8140 ng/mL, the MRT inf ([2]; male, SD, rat, plasma, po, 10 mg/kg, PO 10 mg/kg, Mean of 3 rats, read-out: MRT(0-∞)) was 6.3 h and the Tmax ([2]; male, SD, rat, plasma, po, 10 mg/kg, PO 10 mg/kg, Mean of 3 rats, read-out: Tmax) was 3.3 h. For the same compound, the half-life ([2]; male, SD, rat, plasma, po, 10 mg/kg, PO 10 mg/kg, individual rats 101-103) was 2.9 h, the AUC(0-t) ([2]; male, SD, rat, plasma, po, 10 mg/kg, PO 10 mg/kg, individual rats 101-103, read-out: AUC(0-t)) was 89900 ng·h/mL and the Cmax ([2]; male, SD, rat, plasma, po, 10 mg/kg, PO 10 mg/kg, individual rats 101-103, read-out: Cmax) was 9210 ng/mL. For the same compound, the MRT inf ([2]; male, SD, rat, plasma, po, 10 mg/kg, PO 10 mg/kg, individual rats 101-103, read-out: MRT(0-∞)) was 5.9 h.
